Values quoted from earlier work in patent US20030113362A1, “Unique ascorbic acid derivatives with essential amino acids, nonessential amino acid and amino acids that do not occur in protein: the process for their preparation and use in research, medicine, physiology, pharmacology, nutrition, pharmaceuticals, and for cosmetic, commercial and industrial …” (priority 2001, published 2003).

Details: compared with ascorbic acid; test conditions not given

stability, times more stable than ascorbic acid: 20 times
SMILES: O=C1O[C@H]([C@@H](O)CO)C(O)=C1OS(=O)(=O)O [L-ascorbate 2-sulphate]
